Columns and labels:
NF-κB (p65) = experiment: Activation of NF-κB (nuclear translocation of p65) in HAEC stimulated with high glucose; assay type: cell-based, human; conditions: pre-treatment 5 and 10 μM 24 h, 25 mM glucose 2 h, FIG. 1
Procedure: In the present invention, the term “suppression of NF-κB activation” means suppression of the translocation of NF-κB into the nucleus. The suppression of the translocation of NF-κB into the nucleus can be confirmed by the method described in Example 1. To be specific, a test substance is added to a culture medium of human aortic endothelial cells, the cells are incubated for a predetermined time, the nucleus is extracted from the aforementioned cells stimulated with glucose, and activated NF-κB (p65) translocated into the nucleus is detected. Using the cells before glucose stimulation, wherein NF-κB is not activated, as a negative control and the cells stimulated with glucose and free of addition of a test substance as a positive control, when the detection level of the aforementioned p65 is closer to the negative control than to the positive control, NF-κB activation is evaluated to have been suppressed.
Human aortic endothelial cells (HAEC) were purchased from Clonetics Corp, and the cells cultured for 3-4 passages (37° C., under 5% carbon dioxide gas atmosphere) were used for the experiment. […] Nucleus was extracted from the cells using Nuclear Extract Kit (Active Motif), and then the activated NF-κB (p65) translocated into the nucleus was detected by TransAM NF-κB p65 Kit (Active Motif).

VCAM-1 mRNA = VCAM-1 mRNA expression in HAEC by real-time PCR; assay type: cell-based, human; conditions: 10 μM 24 h, 25 mM glucose 3 h, GAPDH internal standard, FIG. 3A
Procedure: HAEC cells pre-treated with 10 μM of CS or FS for 24 hours were stimulated with 25 mM glucose for 3 hours, and total RNA was extracted with Isogenkit (NIPPON GENE CO., LTD.). From 1 μg of RNA, cDNA was synthesized using 100 U/mL of reverse transcriptase (TAKARA BIO INC.) and 0.1 μM of oligo (dT)-adapter (TAKARA BIO INC.) (total volume of reaction mixture; 50 μL) (42° C., 40 minutes). Real-time PCR was performed using 7300 Real Time PCR system (Applied Biosystems Japan Ltd.) and the PCR product was detected by SYBER Green I.
PCR reaction composition (RT-PCRkit, TAKARA BIO INC.): 12.5 μL Premix Ex Taq, 2.5 μL SYBER Green I, synthesis primer, ROX reference dye, cDNA (corresponding to 20 ng of total RNA), final reaction volume; 25 μL
Primers having the following sequences were used.
PCR was conducted under the following conditions.
thermal denaturation: at 95° C. for 15 seconds, extension reaction: 40 cycles (3 seconds at 95° C., 31 seconds at 60° C.)
Expression amounts of VCAM-1 and MCP-1 mRNA were calculated using GAPDH as the internal standard.

VCAM-1 = VCAM-1 protein expression on HAEC cell membrane (immunostaining); assay type: cell-based, human; conditions: 0.1-10 μM 24 h, 25 mM glucose 4 h, FIG. 4A
Procedure: HAEC cells proliferated to confluence in a 96 well microplate were pre-incubated with 0.1-10 μM serotonin derivative for 24 hours, and stimulated with 25 mM glucose for 4 hours. The cell layer was washed with Hanks solution, and then anti-VCAM-1 monoclonal antibody (Becton Dickinson) was added and the cells were incubated at 37° C. for 1 hour. After washing, the cells were incubated with secondary antibody (peroxidase-labeled anti-mouse IgG goat F(ab′)2 fragment; Cappel) for 1 hour. A color development substrate (o-phenylenediamine dihydrochloride) was added and, about 30 minutes later (room temperature), the absorbance (492 nm) of each well was quantified with a microplate reader. The MCP-1 concentration of the medium was quantified with Human MCP-1 Immunoassay Kit (BioSource International).

[1] = test system: U-937 monocyte cells / HAEC; experiment: Monocyte (U-937) adhesion to HAEC cells; assay type: cell-based, human; conditions: HAEC pre-incubated 5 or 10 μM 24 h, 25 mM glucose 4 h; FIG. 5
Procedure: HAEC cells proliferated to confluence in a 24 well microplate were pre-incubated with CS and FS (5 or 10 μM each) for 24 hours and stimulated with 25 mM glucose for 4 hours. The cell layer was washed with Hanks solution, and then a suspension (1×10^6/mL, 200 μL) of U-937 monocyte cells (purchased from ATCC) was added, and the mixture was incubated at 37° C. for 30 minutes. After washing again, the cells were fixed with 1% para-formaldehyde and the number of U-937 cells attached onto HAEC was counted under a microscope (20 fields). The experiment was performed 3 times and the results are shown as an average value thereof. An experiment using fluorescence-labeled U-937 cells was also performed. To be specific, U-937 cells were incubated (37° C., 1 hour) in the presence of 10 μM 2′,7′-bis(2-carboxyethyl)-5(6)-carboxyfluorescein acetoxymethylester (BCECF-AM, Molecular Probes) and washed by centrifugation. Fluorescence-labeled U-937 cells (1×10^6/mL) were added to HAEC cells, and the mixture was incubated at 37° C. for 1 hour. The floating U-937 cells were removed, the plate was washed with PBS buffer and treated with 1% Triton X for 2 hours. The fluorescence amount of the attached cells was quantified (Ex. 503 nm, Em. 525 nm) using a fluorescence plate reader (Bio-Rad, Fluoromark).

blood NOx = experiment: IBD model mouse: blood NOx concentration; assay type: in vivo; conditions: IBD model mice, diet 3 weeks, vs Control group; FIG. 13
Procedure: By the activation of leukocytes in an inflammatory response, a large amount of NO is produced by the cells, and the blood concentration of NOx, a metabolite, increases. It is known that blood NOx concentration becomes one index of inflammatory response in living organisms due to this mechanism (Yuka Ikenoue et al., International Immunopharmacology 5 (2005) 993-1006). The NOx concentration of the blood obtained in Example 10 was measured using an “Nitric Oxide Quantitation Kit (ACTIVE MOTIF)”.

COc1cc(/C=C/C(=O)NCCc2c[nH]c3ccc(O)cc23)ccc1O [FS, N-feruloyl serotonin]
nuclear translocation of p65 (activation of NF-κB) (NF-κB (p65)): significantly suppressed
expression amount of VCAM-1 mRNA (VCAM-1 mRNA): significantly suppressed the increase
VCAM-1 expression on the cell membrane (VCAM-1): suppressed the induction of their expressions in a dose-dependent manner
number of U-937 cells attached onto HAEC (cell count) [1]: decreased the number of attached cells in a serotonin derivative dose-dependent manner
blood NOx concentration (blood NOx): tendency toward decrease

From patent US20090156657A1, “ANTI-INFLAMMATORY COMPOSITION” (Ajinomoto Co., Inc., priority 2006, published 2009)
